From BindingDB's records for doi:10.1007/s00210-004-0951-4 (Vernalis Research, 2004)
pKi: −log10 of the molar value. Several values for one entry are separate records, joined by “and”; a condition that tells them apart may be missing. Equal entries are not always repeated. Structures can show the parent of a compound that is named as a salt.

Columns and labels:
[1] = target: 5-hydroxytryptamine receptor 2B (Homo sapiens, UniProt P41595)
[2] = target: T1, 5-hydroxytryptamine receptor 2C (Homo sapiens, UniProt P28335)
T1 sequence (P28335 whole entry): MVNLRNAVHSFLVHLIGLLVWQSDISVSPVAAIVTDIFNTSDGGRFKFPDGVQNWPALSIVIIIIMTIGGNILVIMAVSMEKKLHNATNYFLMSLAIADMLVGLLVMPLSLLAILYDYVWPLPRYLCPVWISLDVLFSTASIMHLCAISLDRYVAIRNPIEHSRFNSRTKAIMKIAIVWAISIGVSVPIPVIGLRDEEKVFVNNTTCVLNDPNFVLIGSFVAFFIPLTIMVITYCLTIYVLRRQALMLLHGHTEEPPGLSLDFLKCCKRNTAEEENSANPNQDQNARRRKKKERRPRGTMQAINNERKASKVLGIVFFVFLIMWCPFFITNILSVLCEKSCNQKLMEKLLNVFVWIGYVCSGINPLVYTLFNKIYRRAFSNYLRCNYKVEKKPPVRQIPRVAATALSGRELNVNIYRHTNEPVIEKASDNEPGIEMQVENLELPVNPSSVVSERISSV

5-hydroxytryptamine receptor 2B, sequence (P41595 whole entry): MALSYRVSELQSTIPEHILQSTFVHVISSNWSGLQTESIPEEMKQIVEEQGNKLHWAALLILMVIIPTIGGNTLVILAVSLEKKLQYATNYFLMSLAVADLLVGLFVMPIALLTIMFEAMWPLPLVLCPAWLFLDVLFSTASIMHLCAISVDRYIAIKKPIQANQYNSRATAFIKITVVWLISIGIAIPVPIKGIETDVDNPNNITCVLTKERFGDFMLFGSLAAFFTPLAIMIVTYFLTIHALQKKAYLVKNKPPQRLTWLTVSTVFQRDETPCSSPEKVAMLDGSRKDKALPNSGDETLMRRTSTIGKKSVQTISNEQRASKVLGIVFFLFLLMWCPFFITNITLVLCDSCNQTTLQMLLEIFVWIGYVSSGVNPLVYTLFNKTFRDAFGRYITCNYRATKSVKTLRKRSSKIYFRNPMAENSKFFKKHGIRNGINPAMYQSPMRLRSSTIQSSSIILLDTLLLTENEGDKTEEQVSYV

SMILES	pKi [1]	pKi [2]
CCCN(CCC)C1CCc2cccc(O)c2C1 (stereo not drawn)	5.39	–
Cc1nc2sccn2c(=O)c1CCN1CCC(=C(c2ccc(F)cc2)c2ccc(F)cc2)CC1	8.67	8.18
CC[C@@H](CO)NC(=O)[C@@H]1C=C2c3cccc4c3c(cn4C)C[C@H]2N(C)C1	–	8.35
Cn1ccc2cc3c(cc21)CCN3C(=O)Nc1cccnc1	7.65	–
CSc1cc2c(cc1C(F)(F)F)N(C(=O)Nc1cccnc1)CC2	8.61	8.66
C[C@H](N)CN1CCc2ccc(Br)cc21	7.52	8.25
NCCc1c[nH]c2ccccc12 [1H-indole-3-ethanamine]	6.99	5.63
COc1cc(CC(C)N)c(OC)cc1Br (stereo not drawn) [2-(4-Bromo-2,5-dimethoxy-phenyl)-1-methyl-ethylamine((-)-DOB)]	7.36	–
FC(F)(F)c1ccc(N2CCNCC2)nc1Cl [2-Chloro-3-(trifluoromethyl)-6-(1-piperazinyl)pyridine]	7.04	7.83
c1ccc2nc(N3CCNCC3)ccc2c1 [2-Piperazin-1-yl-quinoline (Quipazine)]	7.07	7.27
Cc1nc(-c2ccc(-c3ccc(C(=O)N4CCc5cc6c(cc54)C4(CCN(C)CC4)CO6)cc3)c(C)c2)no1 [4-[2-methyl-4-(5-methyl-1,2,4-oxadiazol-3-yl)phenyl]phenyl-1'-methylspiro[3,5,6,7-tetrahydro-2H-furo[2,3-f]indole-3,4'-(hexahydropyridine)]-5-ylmethanone]	5.87	5.70
Cn1cc(CCN)c2cc(O)ccc21 [5-HT,omega-N-Me]	8.16	8.57
O=C(CCCN1CCC2(CC1)C(=O)NCN2c1ccccc1)c1ccc(F)cc1 [8-[4-(4-fluorophenyl)-4-oxidanylidene-butyl]-1-phenyl-1,3,8-triazaspiro[4.5]decan-4-one]	–	6.22
CN1CC(C(=O)NC2(C)OC3(O)C4CCCN4C(=O)C(Cc4ccccc4)N3C2=O)C=C2c3cccc4[nH]cc(c34)CC21 (stereo not drawn) [CAS_113-15-5]	8.89	8.72
CN1CC(NS(=O)(=O)N(C)C)CC2c3cccc4c3c(cn4C)CC21 (stereo not drawn) [CAS_64795-35-3]	8.46	–
CC(C)CC(N(C)C)C1(c2ccc(Cl)cc2)CCC1 (stereo not drawn) [CAS_106650-56-0]	–	< 5.00
CN1CCN(c2nc3cc(C(F)(F)F)ccc3n3cccc23)CC1 [CAS_109028-10-6]	6.06	–
Cc1cc2c(cc1Cl)N(C(=O)Nc1ccc(Oc3cccnc3C)nc1)CC2 [CAS_181632-25-7]	6.84	8.15

SMILES	pKi [1]	pKi [2]
Cc1cc(NC(=O)Nc2ccc3c(ccn3C)c2)sn1 [CAS_3277600]	6.90	–
Clc1cncc(N2CCNCC2)n1 [L-630,571]	6.21	7.01
OC(c1ccccc1)C1CCN(CCc2ccccc2)CC1 (stereo not drawn) [MDL-11939]	5.48	6.58
COc1cc(OC)c(C(=O)CCCCN2CCC3(CC2)NC(=O)NC3=O)cc1NS(=O)(=O)c1ccc(C(F)(F)F)cc1 [N-[5-[5-(2,4-Dioxo-1,3,8-triazaspiro[4.5]decan-8-yl)-1-oxopentyl]-2,4-dimethoxyphenyl]-4-(trifluoromethyl)benzenesulfonamide]	5.54	8.30
CCC(CO)NC(=O)C1C=C2c3cccc4[nH]cc(c34)CC2N(C)C1 (stereo not drawn) [NSC_8226]	9.34	8.34
CCCN1CCCC2Cc3[nH]ncc3CC21 (stereo not drawn) [NSC_55397]	6.52	5.48
O=C1NCN(c2ccccc2)C12CCN(CCCOc1ccc(F)cc1)CC2 [NSC_77445]	–	5.81
CC(C)CC(N)C1(c2ccc(Cl)cc2)CCC1 (stereo not drawn) [NSC_134771]	< 5.00	< 5.00
CC(N)Cn1ccc2cc(F)c(Cl)cc21 (stereo not drawn) [NSC_3045226]	8.27	8.22
CC(N)Cc1c[nH]c2ccc(OCc3cccs3)cc12 (stereo not drawn) [NSC_5311036]	–	7.11
C[C@H](N)Cc1cccc(C(F)(F)F)c1 [Norfenfluramine (+)]	7.00	7.29
COc1ccc2c(c1O[C@H]1CCNC1)CCC2 [ORG-37684]	7.37	8.12
CC(C)c1cc(-c2ccc(F)c3ccccc23)nc(N)n1 [RS-127445]	8.97	6.33
CN1CC[C@@H]2CN3CCc4cccc(c43)[C@@H]2C1 [SDZ SER 082 FUMARATE]	6.69	8.12
FC(F)(F)c1cccc(N2CCNCC2)c1 [TFMPP]	7.23	–
NCCc1c[nH]c2ccc(C(N)=O)cc12 [[3H]-5-carboxamidotryptamine]	6.73	–
COc1cc(CC(C)N)c(OC)cc1I (stereo not drawn) [[125I]2,5-dimethoxy-4-iodoamphetamine]	7.55 and 7.27	8.08 and 8.27
CSc1ccc2c(c1)C(N1CCN(C)CC1)Cc1ccccc1S2 (stereo not drawn) [methanesulfonic acid;1-methyl-4-(3-methylsulfanyl-5,6-dihydrobenzo[b][1]benzothiepin-5-yl)piperazine]	–	8.35
